Assay results taken from patent publication US5886156A, “Synthetic peptide lung surfactants having covalently bonded antioxidants” (Merrell Pharmaceuticals Inc., priority 1996, dated 1999).

Test system: surfactant-deficient lavaged rat lungs
Assay: Isolated rat lavaged lung model (adult rat lung model), pressure-volume curve
Set-up: species or system rat (male Sprague Dawley)
Settings: for PC5 (% TLC): per cent of total lung capacity at 5 cm H2O pressure, deflation limb of P-V curve / PC10 (% TLC): per cent of total lung capacity at 10 cm H2O pressure, deflation limb of P-V curve: peptide-DPPC mixture (or DPPC alone) instilled into lavaged excised rat lungs, 25 mg phospholipid, 100-125 mg/kg, 37° C.; for RESTORATION % (per cent restoration based on PC5 values): relative to surfactant-sufficient (100) and surfactant-deficient (0) lungs, peptide-DPPC mixture or DPPC alone
Text: Methods of testing the synthetic surfactant preparations for efficacy are well known in the art. For example, the synthetic surfactant preparations of the present invention can be tested in any appropriate manner such as in the adult rat lung model (Ikegami, et al., (1979) Pediatr. Res. 13, 777-780). Pressure-volume characteristics of surfactant-depleted rat lungs are similar to those of lungs of infants with hyaline membrane disease and restoration of the pressure-volume relationship of the lung to normal is related to the amount of surfactant instilled in a dose dependent manner. (Bermel, M. S., et al., […] excised rat lungs as a model of surfactant deficiency, Lung 162: 99-113 (1984)). The experimental procedures for animal preparation, pressure-volume curve registration and lung lavage are adapted from those described by Ikegami et al., Pediatr. Res. 11: 178-182 (1977) and Pediatr. Res. 13: 777-780 (1979, and Bermel et al, Lung 162: 99-113 (1984). Male Sprague Dawley rats (200-250 g) are anesthetized with sodium pentobarbital and exsanguinated. The trachea is cannulated and the thoracic organs are removed en bloc. After removal of the adventitious tissue, the trachea and lungs (~2 g) are suspended in saline (0.9%), placed in a vacuum chamber, and degassed according to the procedure of […] et al. the degassed lungs are suspended in saline in a 37° C., jacketed reservoir and the tracheal cannula is connected both to a water manometer and a glass syringe by a T-tube. The glass syringe is placed in an infusion/withdrawal pump. […] The total volume of air infused is recorded as the total lung capacity (TLC) which is generally 14-15 ml. The lungs are then deflated at a rate of 2.5 ml/min until zero pressure is attained. During deflation, pressure is read from the water manometer at 1 cm intervals and recorded. […] After degassing and equilibration, the lungs are rendered surfactant-deficient by repeated lavage with 5 ml/g lavage buffer (0.9% NaCl, 10 mM HEPES, pH 7.4). […] At this point, the lungs are considered surfactant-deficient. […] The mixture is then vortexed again, degassed if foamy, and 2 ml of the test mixture are introduced into and withdrawn from the lungs four times by syringe. When the test mixture is reintroduced to the lungs for the fifth time, it is allowed to remain in the lungs. This procedure is adopted to encourage even distribution of the material throughout the lung. The lungs are degassed, allowed to equilibrate at 37° C. for 5 min, and a P-V measurement is performed. Lungs are studied while supported in saline at 37° C. as opposed to ambient temperature since the physical characteristics of the surfactants may be dependent upon temperature. […] Data are presented in terms of the % TLC. […] Comparisons are based on per cent restoration=([…] ×100/(PC5 (sufficient) -PC5(deficient)) and made by one-way analysis of variance using the general linear models procedure with specific contrasts of the means (SAS Institute Inc., Cary, N.C.). […] The restoration based upon the PC5 values was used to compare the test mixtures.

Compound	PC5 (% TLC): per cent of total lung capacity at 5 cm H2O pressure, deflation limb of P-V curve	PC10 (% TLC): per cent of total lung capacity at 10 cm H2O pressure, deflation limb of P-V curve	RESTORATION % (per cent restoration based on PC5 values)	effect on the pressure-volume (P-V) curves of the lavaged lung (DPPC alone, without peptide)
HBB-Aoc-Glu-Trp-Ala-Lys-NH2 [SEQ ID NO: 5]	55 ± 4 % TLC	77 ± 2 % TLC	81 ± 7%	
CCCCCCCCCCCCCCCC(=O)OC[C@H](COP(=O)([O-])OCC[N+](C)(C)C)OC(=O)CCCCCCCCCCCCCCC [DPPC, L-α-dipalmitoylphosphatidylcholine]	13 ± 1 % TLC	31 ± 2 % TLC	11 ± 8%	no significant effect
